Data: US20250304623A1, “PEPTIDES FOR INTRACELLULAR DELIVERY” (UNIVERSIDADE DE SANTIAGO DE COMPOSTELA, priority 2022, published 2025)
Starred links: 1 amine or outer side, 2 acyl side, 3 side chain; linkers in the order of their positions; H or OH if unused. Residues, ends and D or L forms follow the SMILES beside them. Groups on a side chain read outwards from the residue. *: point of attachment. Glutaryl = O=C(CCCC(=O)[*:2])[*:1]; NHNH2 = NN*

How the values were obtained:
[1] = tested on: A549 cells expressing EGFP; assay: Cas9-RNP delivery against EGFP (gene editing, plate reader), A549; format: cell-based; details: for percentage of gene editing, GFP fluorescence intensity decrease (% of reduction): A549 cells
Description: (§1) To generate an EGFP expressing HeLa cell line, HeLa cells were transfected with EGFP pDNA (pEGFP-C1, Clontech) and stable transfectants were selected with 400 μg/mL of G-418 (Millipore). Green clones were selected by epifluorescence microscopy and tested for EGFP expression stability through several passages. […] All other EGFP-expressing cell lines were obtained in a similar way from parent non-EGFP-expressing cell lines.
(§2) Cells expressing EGFP were seeded in a 96 well plate the day before the experiment at a concentration of 50,000 cell/mL (100 μL/w) in DMEM+10% FBS+1% Gln-Abt. For robotic library screening, the delivery of Cas9-RNP against EGFP (RNP designed to knock-out the gene encoding for the enhanced green fluorescent protein (EGFP)) was performed. For RNP assembly, 9.2 μL of crRNA and 9.2 μL of tracrRNA were mixed in 211.6 μL of Nuclease-Free Duplex Buffer (IDT), incubated for 5 min at 95° C. and slowly cooled at rt (see I. Lostalé-Seijo, et al. Peptide/Cas9 nanostructures for ribonucleoprotein cell membrane transport and gene edition, Chem. Sci., 2017). Cas9 protein was dissolved in DMEM at a final concentration of 4 μM and equal volumes of the RNA complex and Cas9 were mixed and incubated for 5 min at rt. 75 μL of the corresponding amphiphile concentrations were added to 5 μL of RNP at 2 μM. The mixture was shaken for 30 min at room temperature before the addition to the cells. The cell medium was aspirated, and cells were washed twice with PBS. Cells were covered with 30 μL of DMEM and 20 μL of the RNP/amphiphile complexes were added to the cells (final peptide concentrations=2.5, 5 and 10 μM; final Cas9-RNP concentration=50 nM) and incubated for 4 h. After the incubation, the medium was replaced by 100 μL of fresh DMEM supplemented with 10% FBS. The total EGFP fluorescence was quantified after 72 h in a plate reader (FIG. 2, Table 1 (right) and Table 6). All experiments were done in triplicate.
Tables 1-7: RLuc (pDNA) or EGFP (mRNA) expression levels were normalized to Lipofectamine reagents (value=1) and expressed as fold-times signal increase. In the case of siRNA, the siRNA treated cells fluorescence was compared with siMOCK control fluorescence, while Cas9-RNP mediated knockout was measured against the fluorescence of untreated cells. In both siRNA and Cas9-RNP, values are expressed as % fluorescence reduction. Amphiphile concentration was 5 μM in all cases. All experiments were performed in triplicate.
(§3) Tables 26-31 show the mean (triplicates) percentage of gene editing, accounted by GFP fluorescence intensity decrease (% of reduction), measured after the transfection of Cas9-RNP by different amphiphiles at different concentrations in a variety of cell lines. Background values, accounted by untreated control cells, were subtracted for processing.

[2] = tested on: HCT116 cells expressing EGFP; assay: Cas9-RNP delivery against EGFP (gene editing, plate reader), HCT116; format: cell-based
Description: as §1
as §2, with “triplicate. […]” for “triplicate.”
as §3

Molecule: Ac-RHLK*RLK*RRLK*RL-NH2 (Ac-RHLKRLKRRLKRL-NH2; not fully specified (residues 4, 7, 11); printed as Ac-RHLK*RLK*RRLK*RL-NH2; also: linker on K* not given here) [13(Arg-His)]
- percentage of gene editing, GFP fluorescence intensity decrease (% of reduction) ([1]; Dodecanal, 5 μM): 27%
- percentage of gene editing, GFP fluorescence intensity decrease (% of reduction) ([1]; Dodecanal, 10 μM): 18%
- percentage of gene editing, GFP fluorescence intensity decrease (% of reduction) ([1]; Myristoleyl, 5 μM): 5%
- percentage of gene editing, GFP fluorescence intensity decrease (% of reduction) ([1]; Myristoleyl, 10 μM): 9%
- percentage of gene editing, GFP fluorescence intensity decrease (% of reduction) ([1]; Oleyl, 5 μM): 20%
- percentage of gene editing, GFP fluorescence intensity decrease (% of reduction) ([1]; Oleyl, 15 μM): 15%
- percentage of gene editing, GFP fluorescence intensity decrease (% of reduction) ([1]; Palmitoleyl, 5 μM): 15%
- percentage of gene editing, GFP fluorescence intensity decrease (% of reduction) ([1]; Palmitoleyl, 10 μM): 10%
- percentage of gene editing, GFP fluorescence intensity decrease (% of reduction) ([1]; Palmitoleyl, 15 μM): 22%
- percentage of gene editing, GFP fluorescence intensity decrease (% of reduction) ([1]; Petroselinyl, 5 μM): 29%
- percentage of gene editing, GFP fluorescence intensity decrease (% of reduction) ([2]; Dodecanal, 5 μM): 4%
- percentage of gene editing, GFP fluorescence intensity decrease (% of reduction) ([2]; Dodecanal, 10 μM): 5%
- percentage of gene editing, GFP fluorescence intensity decrease (% of reduction) ([2]; Dodecanal, 15 μM): 16%
- percentage of gene editing, GFP fluorescence intensity decrease (% of reduction) ([2]; Myristoleyl, 5 μM): −7%
- percentage of gene editing, GFP fluorescence intensity decrease (% of reduction) ([2]; Myristoleyl, 15 μM): 29%
- percentage of gene editing, GFP fluorescence intensity decrease (% of reduction) ([2]; Oleyl, 5 μM): 5%
- percentage of gene editing, GFP fluorescence intensity decrease (% of reduction) ([2]; Palmitoleyl, 5 μM): 30%
- percentage of gene editing, GFP fluorescence intensity decrease (% of reduction) ([2]; Palmitoleyl, 10 μM): 22%
- percentage of gene editing, GFP fluorescence intensity decrease (% of reduction) ([2]; Palmitoleyl, 15 μM): 9%
- percentage of gene editing, GFP fluorescence intensity decrease (% of reduction) ([2]; Petroselinyl, 10 μM): 6%

Molecule: Ac-RK*LRRK*LRK*-NH2 (Ac-RK(NHNH2)LRRK(NHNH2)LRK(NHNH2)-NH2; not fully specified; printed as Ac-RK*LRRK*LRK*-NH2; also: K*2,K*6,K*9: native or modified lysine (ε-amide to a linker)) [Peptide 9.3]
- percentage of gene editing, GFP fluorescence intensity decrease (% of reduction) ([1]; Dodecanal, 10 μM): 0%
- percentage of gene editing, GFP fluorescence intensity decrease (% of reduction) ([1]; Dodecanal, 15 μM): 25%
- percentage of gene editing, GFP fluorescence intensity decrease (% of reduction) ([1]; Myristoleyl, 5 μM): 13%
- percentage of gene editing, GFP fluorescence intensity decrease (% of reduction) ([1]; Myristoleyl, 10 μM): 17%
- percentage of gene editing, GFP fluorescence intensity decrease (% of reduction) ([1]; Myristoleyl, 15 μM): 50%
- percentage of gene editing, GFP fluorescence intensity decrease (% of reduction) ([1]; Oleyl, 15 μM): 18%
- percentage of gene editing, GFP fluorescence intensity decrease (% of reduction) ([1]; Palmitoleyl, 15 μM): 39%
- percentage of gene editing, GFP fluorescence intensity decrease (% of reduction) ([1]; Petroselinyl, 10 μM): 13%
- percentage of gene editing, GFP fluorescence intensity decrease (% of reduction) ([1]; Petroselinyl, 15 μM): 47%
- percentage of gene editing, GFP fluorescence intensity decrease (% of reduction) ([2]; Dodecanal, 5 μM): 7%
- percentage of gene editing, GFP fluorescence intensity decrease (% of reduction) ([2]; Dodecanal, 10 μM): 1%
- percentage of gene editing, GFP fluorescence intensity decrease (% of reduction) ([2]; Dodecanal, 15 μM): −8%
- percentage of gene editing, GFP fluorescence intensity decrease (% of reduction) ([2]; Myristoleyl, 15 μM): −11%
- percentage of gene editing, GFP fluorescence intensity decrease (% of reduction) ([2]; Oleyl, 5 μM): 24%
- percentage of gene editing, GFP fluorescence intensity decrease (% of reduction) ([2]; Oleyl, 10 μM): 14%
- percentage of gene editing, GFP fluorescence intensity decrease (% of reduction) ([2]; Palmitoleyl, 5 μM): −21%
- percentage of gene editing, GFP fluorescence intensity decrease (% of reduction) ([2]; Palmitoleyl, 15 μM): −38%
- percentage of gene editing, GFP fluorescence intensity decrease (% of reduction) ([2]; Petroselinyl, 15 μM): 4%

Molecule: CC(=O)N[C@@H](CCCNC(=N)N)C(=O)N[C@@H](CCCCNC(=O)CCCC(=O)NN)C(=O)N[C@@H](Cc1c[nH]cn1)C(=O)N[C@@H](CCCNC(=N)N)C(=O)N[C@@H](CCCCNC(=O)CCCC(=O)NN)C(=O)N[C@@H](CCCCNC(=O)CCCC(=O)NN)C(=O)N[C@@H](Cc1c[nH]cn1)C(N)=O [7.3(L-H), Ac-RK*HRK*K*H-NH2] (Ac-RK([Glutaryl-NHNH2])HRK([Glutaryl-NHNH2])K([Glutaryl-NHNH2])H-NH2)
- Cas9-RNP % fluorescence reduction ([1]; A549, 5 μM, Myr tail): 60%
- Cas9-RNP % fluorescence reduction ([1]; A549, 5 μM, Pal tail): 67%
- Cas9-RNP % fluorescence reduction ([1]; A549, 5 μM, Pet tail): 58%
- efficiency on GFP silencing (Cas9-RNP delivery) ([1]; A549, myristoleyl, palmitoleyl or petroselinyl aldehydes): 60-70%
- percentage of gene editing, GFP fluorescence intensity decrease (% of reduction) ([1]; Dodecanal, 15 μM): −9%
- percentage of gene editing, GFP fluorescence intensity decrease (% of reduction) ([1]; Myristoleyl, 5 μM): 60%
- percentage of gene editing, GFP fluorescence intensity decrease (% of reduction) ([1]; Myristoleyl, 10 μM): 29%
- percentage of gene editing, GFP fluorescence intensity decrease (% of reduction) ([1]; Myristoleyl, 15 μM): 11%
- percentage of gene editing, GFP fluorescence intensity decrease (% of reduction) ([1]; Oleyl, 5 μM): 22%
- percentage of gene editing, GFP fluorescence intensity decrease (% of reduction) ([1]; Oleyl, 10 μM): 31%
- percentage of gene editing, GFP fluorescence intensity decrease (% of reduction) ([1]; Oleyl, 15 μM): 9%
- percentage of gene editing, GFP fluorescence intensity decrease (% of reduction) ([1]; Palmitoleyl, 5 μM): 67%
- percentage of gene editing, GFP fluorescence intensity decrease (% of reduction) ([1]; Palmitoleyl, 10 μM): 35%
- percentage of gene editing, GFP fluorescence intensity decrease (% of reduction) ([1]; Palmitoleyl, 15 μM): −6%
- percentage of gene editing, GFP fluorescence intensity decrease (% of reduction) ([1]; Petroselinyl, 5 μM): 59%
- percentage of gene editing, GFP fluorescence intensity decrease (% of reduction) ([1]; Petroselinyl, 10 μM): 29%
- percentage of gene editing, GFP fluorescence intensity decrease (% of reduction) ([1]; Petroselinyl, 15 μM): 26%
- percentage of gene editing, GFP fluorescence intensity decrease (% of reduction) ([2]; Dodecanal, 15 μM): 3%
- percentage of gene editing, GFP fluorescence intensity decrease (% of reduction) ([2]; Myristoleyl, 15 μM): 26%
- percentage of gene editing, GFP fluorescence intensity decrease (% of reduction) ([2]; Oleyl, 5 μM): −5%
- percentage of gene editing, GFP fluorescence intensity decrease (% of reduction) ([2]; Oleyl, 10 μM): 5%
- percentage of gene editing, GFP fluorescence intensity decrease (% of reduction) ([2]; Palmitoleyl, 5 μM): 28%
- percentage of gene editing, GFP fluorescence intensity decrease (% of reduction) ([2]; Palmitoleyl, 10 μM): 22%

Molecule: Ac-RHLK*RHK*RRLK*RH-NH2 (Ac-RHLKRHKRRLKRH-NH2; not fully specified (residues 4, 7, 11); printed as Ac-RHLK*RHK*RRLK*RH-NH2; also: linker on K* not given here) [13(3His)]
- percentage of gene editing, GFP fluorescence intensity decrease (% of reduction) ([1]; Myristoleyl, 5 μM): 5%
- percentage of gene editing, GFP fluorescence intensity decrease (% of reduction) ([1]; Myristoleyl, 10 μM): 11%
- percentage of gene editing, GFP fluorescence intensity decrease (% of reduction) ([1]; Myristoleyl, 15 μM): 43%
- percentage of gene editing, GFP fluorescence intensity decrease (% of reduction) ([1]; Oleyl, 15 μM): 4%
- percentage of gene editing, GFP fluorescence intensity decrease (% of reduction) ([1]; Palmitoleyl, 15 μM): 18%
- percentage of gene editing, GFP fluorescence intensity decrease (% of reduction) ([2]; Dodecanal, 5 μM): −33%
- percentage of gene editing, GFP fluorescence intensity decrease (% of reduction) ([2]; Myristoleyl, 15 μM): 0%
- percentage of gene editing, GFP fluorescence intensity decrease (% of reduction) ([2]; Palmitoleyl, 5 μM): −9%
- percentage of gene editing, GFP fluorescence intensity decrease (% of reduction) ([2]; Palmitoleyl, 15 μM): 14%
- percentage of gene editing, GFP fluorescence intensity decrease (% of reduction) ([2]; Petroselinyl, 5 μM): 26%

Molecule: Ac-RK*LRRK*L-NH2 (Ac-RK(NHNH2)LRRK(NHNH2)L-NH2; not fully specified; printed as Ac-RK*LRRK*L-NH2; also: K*2,K*6: native or modified lysine (ε-amide to a linker)) [Peptide 7.2]
- percentage of gene editing, GFP fluorescence intensity decrease (% of reduction) ([1]; Dodecanal, 10 μM): −3%
- percentage of gene editing, GFP fluorescence intensity decrease (% of reduction) ([1]; Dodecanal, 15 μM): −13%
- percentage of gene editing, GFP fluorescence intensity decrease (% of reduction) ([1]; Myristoleyl, 5 μM): 3%
- percentage of gene editing, GFP fluorescence intensity decrease (% of reduction) ([1]; Myristoleyl, 10 μM): 7%
- percentage of gene editing, GFP fluorescence intensity decrease (% of reduction) ([1]; Myristoleyl, 15 μM): 7%
- percentage of gene editing, GFP fluorescence intensity decrease (% of reduction) ([2]; Dodecanal, 15 μM): −18%
